Data from article PMC12621202, “RTx-303, an Orally Bioavailable Polθ Polymerase Inhibitor That Potentiates PARP Inhibitors in BRCA Mutant Tumors” (Journal of Medicinal Chemistry, 2025).

Legend:
Assay in all cases: Kinase profiling
Assay type in all cases: biochemical
Conditions in all cases: mean n=2, read-out: % Activity with 10 µM RTx-303
[1] = biological target: T1, A-Raf(h) (Homo sapiens, UniProt P10398)
T1 construct: purchased Eurofins (KinaseProfiler)
Description: (§1) Supplementary Fig. 8 Pharmacological profiling of RTx-303 against kinases.
(§2) % activity of the indicated kinases is shown following incubation with 10 µM RTx-303 in vitro.
(§3) Data represent mean (n = 2).

[2] = biological target: T2, ATM(h) (Homo sapiens, UniProt Q13315)
T2 construct: purchased Eurofins (KinaseProfiler)
Description: as §1, §2, §3

[3] = biological target: T3, ATR/ATRIP(h) (Homo sapiens, UniProt Q13535)
T3 construct: purchased Eurofins (KinaseProfiler)
Description: as §1, §2, §3

[4] = biological target: T4, CDK1/cyclinB(h) (Homo sapiens, UniProt P06493)
T4 construct: purchased Eurofins (KinaseProfiler)
Description: as §1, §2, §3

[5] = biological target: T5, CDK14/cyclinY(h) (Homo sapiens, UniProt O94921)
T5 construct: purchased Eurofins (KinaseProfiler)
Description: as §1, §2, §3

[6] = biological target: T6, CDK16/cyclinY(h) (Homo sapiens, UniProt Q00536)
T6 construct: purchased Eurofins (KinaseProfiler)
T6 sequence (Q00536 whole entry): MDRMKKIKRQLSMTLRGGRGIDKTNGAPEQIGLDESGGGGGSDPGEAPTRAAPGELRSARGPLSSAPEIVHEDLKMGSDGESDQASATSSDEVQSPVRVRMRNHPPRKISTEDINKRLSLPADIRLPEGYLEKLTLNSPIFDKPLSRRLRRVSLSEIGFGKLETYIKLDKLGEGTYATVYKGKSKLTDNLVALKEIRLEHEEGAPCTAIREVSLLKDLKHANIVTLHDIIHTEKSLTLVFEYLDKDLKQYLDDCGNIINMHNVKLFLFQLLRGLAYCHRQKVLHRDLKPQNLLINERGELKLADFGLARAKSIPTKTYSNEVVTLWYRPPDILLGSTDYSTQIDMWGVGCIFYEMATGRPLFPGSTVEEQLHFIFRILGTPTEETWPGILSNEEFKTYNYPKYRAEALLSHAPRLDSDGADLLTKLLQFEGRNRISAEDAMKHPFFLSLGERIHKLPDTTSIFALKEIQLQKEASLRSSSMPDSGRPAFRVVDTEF
T6 sequence (Q8ND76 whole entry partner): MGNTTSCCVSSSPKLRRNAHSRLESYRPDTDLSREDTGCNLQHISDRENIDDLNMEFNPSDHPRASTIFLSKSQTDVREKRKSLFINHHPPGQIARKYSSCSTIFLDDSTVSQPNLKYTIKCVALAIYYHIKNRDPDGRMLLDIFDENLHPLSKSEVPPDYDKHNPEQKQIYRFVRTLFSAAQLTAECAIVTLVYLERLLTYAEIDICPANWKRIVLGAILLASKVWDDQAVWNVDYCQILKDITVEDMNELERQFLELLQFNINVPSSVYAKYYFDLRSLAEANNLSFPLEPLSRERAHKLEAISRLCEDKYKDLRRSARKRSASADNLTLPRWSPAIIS
Description: as §1, §2, §3

[7] = biological target: T7, CDK17/cyclinY(h) (Homo sapiens, UniProt Q00537)
T7 construct: purchased Eurofins (KinaseProfiler)
Description: as §1, §2, §3

[8] = biological target: T8, CDK18/cyclinY(h) (Homo sapiens, UniProt Q07002)
T8 construct: purchased Eurofins (KinaseProfiler)
Description: as §1, §2, §3

[9] = biological target: T9, CDK2/cyclinA(h) (Homo sapiens, UniProt P24941)
T9 construct: purchased Eurofins (KinaseProfiler)
Description: as §1, §2, §3

[10] = biological target: T10, CDK2/cyclinE(h) (Homo sapiens, UniProt P24941)
T10 construct: purchased Eurofins (KinaseProfiler)
Description: as §1, §2, §3

[11] = biological target: T11, CDK5/p25(h) (Homo sapiens, UniProt Q00535)
T11 construct: purchased Eurofins (KinaseProfiler)
T11 sequence (Q00535 whole entry): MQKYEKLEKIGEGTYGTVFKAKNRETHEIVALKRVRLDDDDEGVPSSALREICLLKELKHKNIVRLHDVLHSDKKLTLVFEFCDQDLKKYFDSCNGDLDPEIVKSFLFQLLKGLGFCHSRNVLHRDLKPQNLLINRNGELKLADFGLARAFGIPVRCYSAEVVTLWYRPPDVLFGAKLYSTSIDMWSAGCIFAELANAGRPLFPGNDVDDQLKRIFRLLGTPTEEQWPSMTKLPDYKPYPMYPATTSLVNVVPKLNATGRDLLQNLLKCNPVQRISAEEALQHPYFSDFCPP
T11 sequence (Q15078 99-307 partner limits assumed): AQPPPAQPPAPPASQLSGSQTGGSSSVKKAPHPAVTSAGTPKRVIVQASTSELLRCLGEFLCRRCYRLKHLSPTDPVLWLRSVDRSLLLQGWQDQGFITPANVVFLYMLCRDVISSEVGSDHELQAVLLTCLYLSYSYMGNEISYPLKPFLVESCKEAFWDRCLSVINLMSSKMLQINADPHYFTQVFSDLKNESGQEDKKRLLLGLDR
Description: as §1, §2, §3

[12] = biological target: T12, CDK6/cyclinD3(h) (Homo sapiens, UniProt Q00534)
T12 construct: purchased Eurofins (KinaseProfiler)
Description: as §1, §2, §3

[13] = biological target: T13, CDK9/cyclin T1(h) (Homo sapiens, UniProt P50750)
T13 construct: purchased Eurofins (KinaseProfiler)
Description: as §1, §2, §3

[14] = biological target: T14, CDKL4(h) (Homo sapiens, UniProt Q5MAI5)
T14 construct: purchased Eurofins (KinaseProfiler)
T14 sequence (Q5MAI5 whole entry): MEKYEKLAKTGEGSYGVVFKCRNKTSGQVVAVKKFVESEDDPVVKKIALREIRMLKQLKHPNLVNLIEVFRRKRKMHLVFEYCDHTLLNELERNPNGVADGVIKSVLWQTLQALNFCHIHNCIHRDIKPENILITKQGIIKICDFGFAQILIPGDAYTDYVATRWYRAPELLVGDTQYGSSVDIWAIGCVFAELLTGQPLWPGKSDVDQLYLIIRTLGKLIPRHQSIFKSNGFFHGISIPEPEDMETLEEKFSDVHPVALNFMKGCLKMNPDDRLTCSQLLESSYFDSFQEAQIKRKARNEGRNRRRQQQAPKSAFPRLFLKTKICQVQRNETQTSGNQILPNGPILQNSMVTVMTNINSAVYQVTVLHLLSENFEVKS
Description: as §1, §2, §3

[15] = biological target: T15, Cdc7/cyclinB1(h) (Homo sapiens, UniProt O00311)
T15 construct: purchased Eurofins (KinaseProfiler)
Description: as §1, §2, §3

[16] = biological target: T16, ChaK1(h) (Homo sapiens, UniProt Q96QT4)
T16 construct: purchased Eurofins (KinaseProfiler)
Description: as §1, §2, §3

[17] = biological target: T17, DNA-PK(h) (Homo sapiens, UniProt P78527)
T17 construct: purchased Eurofins (KinaseProfiler)
Description: as §1, §2, §3

[18] = biological target: T18, DYRK3(h) (Homo sapiens, UniProt O43781)
T18 construct: purchased Eurofins (KinaseProfiler)
Description: as §1, §2, §3

[19] = biological target: T19, GRK5(h) (Homo sapiens, UniProt P34947)
T19 construct: purchased Eurofins (KinaseProfiler)
Description: as §1, §2, §3

[20] = biological target: T20, GRK6(h) (Homo sapiens, UniProt P43250)
T20 construct: purchased Eurofins (KinaseProfiler)
T20 sequence (P43250 whole entry): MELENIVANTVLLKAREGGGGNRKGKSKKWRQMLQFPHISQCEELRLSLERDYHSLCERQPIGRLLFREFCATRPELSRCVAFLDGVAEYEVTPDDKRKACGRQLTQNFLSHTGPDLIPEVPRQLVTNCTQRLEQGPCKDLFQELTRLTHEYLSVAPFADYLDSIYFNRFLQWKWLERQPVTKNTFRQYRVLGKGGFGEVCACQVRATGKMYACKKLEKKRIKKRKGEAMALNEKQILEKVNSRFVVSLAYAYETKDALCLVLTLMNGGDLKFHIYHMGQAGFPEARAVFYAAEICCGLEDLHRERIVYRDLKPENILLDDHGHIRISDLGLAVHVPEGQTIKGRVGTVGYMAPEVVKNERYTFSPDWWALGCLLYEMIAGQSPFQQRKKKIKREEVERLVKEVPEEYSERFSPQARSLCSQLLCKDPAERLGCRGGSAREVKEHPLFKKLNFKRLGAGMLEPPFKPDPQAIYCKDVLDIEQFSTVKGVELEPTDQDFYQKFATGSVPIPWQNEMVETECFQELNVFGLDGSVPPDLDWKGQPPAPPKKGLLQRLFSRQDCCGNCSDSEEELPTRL
Description: as §1, §2, §3

[21] = biological target: T21, MLK4(h) (Homo sapiens, UniProt Q5TCX8)
T21 construct: purchased Eurofins (KinaseProfiler)
Description: as §1, §2, §3

[22] = biological target: T22, PASK(h) (Homo sapiens, UniProt Q96RG2)
T22 construct: purchased Eurofins (KinaseProfiler)
T22 sequence (Q96RG2 whole entry): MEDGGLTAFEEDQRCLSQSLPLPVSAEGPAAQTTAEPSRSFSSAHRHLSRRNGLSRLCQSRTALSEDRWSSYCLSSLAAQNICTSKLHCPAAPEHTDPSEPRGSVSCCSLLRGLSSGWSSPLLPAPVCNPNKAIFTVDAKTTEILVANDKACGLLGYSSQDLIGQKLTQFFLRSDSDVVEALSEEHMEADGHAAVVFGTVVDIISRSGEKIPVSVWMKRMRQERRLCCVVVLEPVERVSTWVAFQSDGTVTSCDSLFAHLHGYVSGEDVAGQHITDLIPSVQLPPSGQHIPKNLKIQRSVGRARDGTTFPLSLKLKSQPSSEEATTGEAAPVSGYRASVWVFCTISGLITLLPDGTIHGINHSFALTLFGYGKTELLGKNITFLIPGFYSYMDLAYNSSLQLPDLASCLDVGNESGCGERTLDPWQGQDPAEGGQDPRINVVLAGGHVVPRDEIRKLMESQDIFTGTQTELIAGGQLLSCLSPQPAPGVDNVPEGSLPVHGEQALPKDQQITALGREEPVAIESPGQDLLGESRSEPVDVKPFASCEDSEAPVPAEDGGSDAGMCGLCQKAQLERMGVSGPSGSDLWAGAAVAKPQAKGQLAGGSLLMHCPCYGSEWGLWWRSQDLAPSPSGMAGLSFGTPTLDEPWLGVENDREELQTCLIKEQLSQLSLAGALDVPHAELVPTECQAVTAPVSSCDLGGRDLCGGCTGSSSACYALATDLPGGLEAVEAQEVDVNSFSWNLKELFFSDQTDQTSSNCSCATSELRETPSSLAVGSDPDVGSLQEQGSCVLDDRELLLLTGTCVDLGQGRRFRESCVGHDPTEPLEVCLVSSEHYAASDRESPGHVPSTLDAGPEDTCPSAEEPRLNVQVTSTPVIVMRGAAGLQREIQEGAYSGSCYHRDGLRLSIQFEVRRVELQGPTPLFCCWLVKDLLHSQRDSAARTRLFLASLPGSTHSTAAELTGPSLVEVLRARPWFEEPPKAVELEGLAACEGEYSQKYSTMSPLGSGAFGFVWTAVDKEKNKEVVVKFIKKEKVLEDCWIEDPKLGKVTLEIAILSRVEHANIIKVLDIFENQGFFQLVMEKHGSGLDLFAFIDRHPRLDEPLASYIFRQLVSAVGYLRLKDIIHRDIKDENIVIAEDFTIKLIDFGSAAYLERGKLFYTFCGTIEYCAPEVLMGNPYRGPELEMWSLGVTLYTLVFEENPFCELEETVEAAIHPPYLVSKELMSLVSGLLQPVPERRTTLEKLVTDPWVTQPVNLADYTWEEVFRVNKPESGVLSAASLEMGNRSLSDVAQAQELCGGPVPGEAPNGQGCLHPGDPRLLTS
Description: as §1, §2, §3

[23] = biological target: T23, PDHK2(h) (Homo sapiens, UniProt Q15119)
T23 construct: purchased Eurofins (KinaseProfiler)
Description: as §1, §2, §3

[24] = biological target: T24, PDHK4(h) (Homo sapiens, UniProt Q16654)
T24 construct: purchased Eurofins (KinaseProfiler)
Description: as §1, §2, §3

[25] = biological target: T25, PEK(h) (Homo sapiens, UniProt Q9NZJ5)
T25 construct: purchased Eurofins (KinaseProfiler)
Description: as §1, §2, §3

[26] = biological target: T26, PIP4K2a(h) (Homo sapiens, UniProt P48426)
T26 construct: purchased Eurofins (KinaseProfiler)
Description: as §1, §2, §3

[27] = biological target: T27, PKCα(h) (Homo sapiens, UniProt P17252)
T27 construct: purchased Eurofins (KinaseProfiler)
Description: as §1, §2, §3

[28] = biological target: T28, PKCβI(h) (Homo sapiens, UniProt P05771)
T28 construct: purchased Eurofins (KinaseProfiler)
Description: as §1, §2, §3

[29] = biological target: T29, PKCγ(h) (Homo sapiens, UniProt P05129)
T29 construct: purchased Eurofins (KinaseProfiler)
Description: as §1, §2, §3

[30] = biological target: T30, PKCζ(h) (Homo sapiens, UniProt Q05513)
T30 construct: purchased Eurofins (KinaseProfiler)
Description: as §1, §2, §3

[31] = biological target: T31, TAF1L(h) (Homo sapiens, UniProt Q8IZX4)
T31 construct: purchased Eurofins (KinaseProfiler)
Description: as §1, §2, §3

[32] = biological target: T32, TRB2(h) (Homo sapiens, UniProt Q92519)
T32 construct: purchased Eurofins (KinaseProfiler)
T32 sequence (Q92519 whole entry): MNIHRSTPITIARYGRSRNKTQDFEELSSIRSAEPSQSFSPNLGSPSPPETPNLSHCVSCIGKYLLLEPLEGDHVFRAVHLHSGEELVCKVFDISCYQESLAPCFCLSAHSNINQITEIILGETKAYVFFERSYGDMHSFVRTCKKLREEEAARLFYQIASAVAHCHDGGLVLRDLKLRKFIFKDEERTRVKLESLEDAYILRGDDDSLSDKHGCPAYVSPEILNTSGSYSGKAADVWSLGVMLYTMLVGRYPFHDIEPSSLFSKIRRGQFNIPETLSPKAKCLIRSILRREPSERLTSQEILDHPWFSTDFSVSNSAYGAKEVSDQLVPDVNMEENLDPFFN
Description: as §1, §2, §3

[33] = biological target: T33, TSSK2(h) (Homo sapiens, UniProt Q96PF2)
T33 construct: purchased Eurofins (KinaseProfiler)
Description: as §1, §2, §3

[34] = biological target: T34, TTBK1(h) (Homo sapiens, UniProt Q5TCY1)
T34 construct: purchased Eurofins (KinaseProfiler)
Description: as §1, §2, §3

[35] = biological target: T35, TTBK2(h) (Homo sapiens, UniProt Q6IQ55)
T35 construct: purchased Eurofins (KinaseProfiler)
Description: as §1, §2, §3

[36] = biological target: T36, VRK1(h) (Homo sapiens, UniProt Q99986)
T36 construct: purchased Eurofins (KinaseProfiler)
T36 sequence (Q99986 whole entry): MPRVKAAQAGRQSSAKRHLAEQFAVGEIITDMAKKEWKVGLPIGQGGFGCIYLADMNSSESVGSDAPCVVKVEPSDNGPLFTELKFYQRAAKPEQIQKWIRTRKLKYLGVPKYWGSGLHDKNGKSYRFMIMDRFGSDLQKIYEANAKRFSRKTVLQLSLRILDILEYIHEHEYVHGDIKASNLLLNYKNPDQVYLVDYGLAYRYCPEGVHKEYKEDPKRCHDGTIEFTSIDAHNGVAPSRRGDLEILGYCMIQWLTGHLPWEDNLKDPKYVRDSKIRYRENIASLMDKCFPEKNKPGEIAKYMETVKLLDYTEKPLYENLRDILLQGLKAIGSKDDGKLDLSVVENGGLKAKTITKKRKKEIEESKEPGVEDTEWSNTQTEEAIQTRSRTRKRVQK
Description: as §1, §2, §3

[37] = biological target: T37, eEF-2K(h) (Homo sapiens, UniProt O00418)
T37 construct: purchased Eurofins (KinaseProfiler)
Description: as §1, §2, §3

T1 sequence (P10398 whole entry): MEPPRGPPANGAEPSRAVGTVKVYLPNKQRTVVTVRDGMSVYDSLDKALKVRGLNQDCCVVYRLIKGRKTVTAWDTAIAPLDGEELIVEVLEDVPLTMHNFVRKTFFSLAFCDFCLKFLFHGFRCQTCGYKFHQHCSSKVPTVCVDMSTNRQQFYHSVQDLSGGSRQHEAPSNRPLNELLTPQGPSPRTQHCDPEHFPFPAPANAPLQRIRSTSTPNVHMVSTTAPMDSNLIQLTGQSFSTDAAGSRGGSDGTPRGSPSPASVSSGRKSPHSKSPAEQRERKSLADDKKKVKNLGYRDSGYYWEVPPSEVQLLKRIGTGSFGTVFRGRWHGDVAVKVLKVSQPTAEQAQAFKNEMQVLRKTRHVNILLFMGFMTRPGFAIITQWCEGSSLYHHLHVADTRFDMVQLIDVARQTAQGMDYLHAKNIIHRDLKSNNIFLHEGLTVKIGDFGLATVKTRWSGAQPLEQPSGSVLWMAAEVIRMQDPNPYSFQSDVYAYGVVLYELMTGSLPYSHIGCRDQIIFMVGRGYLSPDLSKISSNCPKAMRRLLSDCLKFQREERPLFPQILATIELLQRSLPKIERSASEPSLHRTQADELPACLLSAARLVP

Question: [2H]C([2H])([2H])N(C(=O)Oc1c(N2CCN(C[C@H](O)CN(C)C)C2=O)cc(C(F)(F)F)cc1C(F)(F)F)c1ccc(F)cc1 [RTx-303] was tested. Which activity at 10 µM [1] did it give?
Answer: Its activity at 10 µM is 105%.

Question: What about the activity at 10 µM [2] of the same molecule?
Answer: The activity at 10 µM was 93%.

Question: And the activity at 10 µM [3]?
Answer: The activity at 10 µM was 77%.

Question: What about the activity at 10 µM [4] of the same molecule?
Answer: The activity at 10 µM was 105%.

Question: And the activity at 10 µM [5]?
Answer: The activity at 10 µM was 105%.

Question: And the activity at 10 µM [6]?
Answer: Its activity at 10 µM is 102%.

Question: What about the activity at 10 µM [7] of the same molecule?
Answer: The activity at 10 µM was 110%.

Question: And the activity at 10 µM [8]?
Answer: Its activity at 10 µM is 89%.

Question: And the activity at 10 µM [9]?
Answer: Its activity at 10 µM is 100%.

Question: What about the activity at 10 µM [10] of the same molecule?
Answer: The activity at 10 µM was 109%.

Question: And the activity at 10 µM [11]?
Answer: The activity at 10 µM was 104%.

Question: What about the activity at 10 µM [12] of the same molecule?
Answer: The activity at 10 µM was 101%.

Question: What about the activity at 10 µM [13] of the same molecule?
Answer: The activity at 10 µM was 119%.

Question: And the activity at 10 µM [14]?
Answer: Its activity at 10 µM is 99%.

Question: What about the activity at 10 µM [15] of the same molecule?
Answer: Its activity at 10 µM is 92%.

Question: And the activity at 10 µM [16]?
Answer: Its activity at 10 µM is 102%.

Question: What about the activity at 10 µM [17] of the same molecule?
Answer: The activity at 10 µM was 94%.

Question: What about the activity at 10 µM [18] of the same molecule?
Answer: Its activity at 10 µM is 113%.

Question: And the activity at 10 µM [19]?
Answer: Its activity at 10 µM is 103%.

Question: What about the activity at 10 µM [20] of the same molecule?
Answer: Its activity at 10 µM is 90%.

Question: And the activity at 10 µM [21]?
Answer: Its activity at 10 µM is 109%.

Question: And the activity at 10 µM [22]?
Answer: Its activity at 10 µM is 75%.

Question: What about the activity at 10 µM [23] of the same molecule?
Answer: The activity at 10 µM was 98%.

Question: And the activity at 10 µM [24]?
Answer: The activity at 10 µM was 93%.

Question: What about the activity at 10 µM [25] of the same molecule?
Answer: Its activity at 10 µM is 104%.

Question: What about the activity at 10 µM [26] of the same molecule?
Answer: The activity at 10 µM was 96%.

Question: And the activity at 10 µM [27]?
Answer: Its activity at 10 µM is 103%.

Question: And the activity at 10 µM [28]?
Answer: The activity at 10 µM was 103%.

Question: What about the activity at 10 µM [29] of the same molecule?
Answer: Its activity at 10 µM is 111%.

Question: What about the activity at 10 µM [30] of the same molecule?
Answer: The activity at 10 µM was 102%.

Question: And the activity at 10 µM [31]?
Answer: The activity at 10 µM was 95%.

Question: What about the activity at 10 µM [32] of the same molecule?
Answer: Its activity at 10 µM is 98%.

Question: What about the activity at 10 µM [33] of the same molecule?
Answer: The activity at 10 µM was 102%.

Question: And the activity at 10 µM [34]?
Answer: Its activity at 10 µM is 101%.

Question: And the activity at 10 µM [35]?
Answer: Its activity at 10 µM is 99%.

Question: What about the activity at 10 µM [36] of the same molecule?
Answer: The activity at 10 µM was 92%.

Question: And the activity at 10 µM [37]?
Answer: The activity at 10 µM was 94%.
